For this data set, the system named is mice marrow cells.

Structures are written as SMILES.

Procedure: The study objective was detection and quantitative estimate of cytogenetic (mutagenic) activity of pharmacologic substances in polychromatophil cells (PCC) of mammal marrow. The method is based on microscopic recording of cells with micronuclei.
The experiments were performed to 2 months old male and female F1 (CBAx C57BI6/J) cross-breed mice weighing 18-20 g. Each group included 6 animals. The animals were kept at 12 hours light pattern with free food and water access. […] Three sessions of experiments were carried out with corresponding controls: therapeutic dose was tested on male animals with a single introduction; subtoxic dose was tested on male animals with a single introduction; therapeutic dose was tested on male animals with a single introduction; subtoxic dose was tested on male animals and female with five-time introduction.
Seven animal groups were formed: four experimental groups and three corresponding reference groups. The substance in the amount of 0.1 mg/kg was introduced five times at 24 hours interval to males and females. All animals were sacrificed 6 hours upon the last introduction of the protein/polypeptide complex.
In two other experimental groups, the protein/polypeptide complex was introduced in single dosing to males in doses of 0.2 mg/kg and 0.5 mg/kg.
Normal saline solvent was used as a negative control. It was introduced intraperitoneally to male and female mice of two reference groups for the same period and in the same amount as to the experimental animals.
Marrow cell preparations for micronuclei count were made by a standard method in compliance with guidelines [formula] […] The animals were sacrificed through cervical dislocation 6 hours after the last introduction. Both thigh bones were detached and muscles were removed from them. In order to wash out the marrow, fetal calf serum was used (produced by NPP PanEko). The marrow from both thigh bones was washed out into a microtube using a syringe. […] 2,000 polychromatophil cells from each animal were analyzed in encoded preparations.

Consider `O=P1(N(CCCl)CCCl)NCCCO1` (stereo not drawn) [Cyclophosphamide, cyclophosphamide], for which the “polychromatophilic to normochromatic erythrocytes ratio” value (20 mg/kg, compared to control P<0.005) is on record as “shift to the latter”. Besides, for the setting “male mice, 20 mg/kg intraperitoneally, versus reference, P<0.001”, the “increased frequency of micronucleus cells” value stood at 19.6 times. For the same compound, the “frequency of micronucleus cells” value (male mice, 20 mg/kg intraperitoneally, 3.16 % in reference) is reported as 62.1%.
